Settings: PEG-stabilized DSPC/Chol/PEG(2000)-DSPE liposome formulation (40 mg/ml total lipid, 12 mg/ml WSA1); buffer and serum; 48h incubation at 37° C.
Description: The liposomes are loaded by use of citric acid pH-gradient. Liposomes are prepared in 500 mM citrate buffer with pH 4.0 The external medium is titrated to pH 7.7 with sodium carbonate. WSA is thereafter added and allowed to load for 20 minutes at 60° C. The final formulation contains 40 mg/ml of total lipid and 12 mg/ml of WSA1 which corresponds to about 1×10^5 WSA, or 1×10^6 10 B, per liposome.

## 1,8-diamino-4-N-3- [12-(N-9-acridinyl-3-aminopropyl)-p-carborane-1-yl] propyl-4-azooctane hydrogen chloride [WSA1]
  encapsulated WSA 1 released: less than 15%

From patent publication US6562316B1, “Drug delivery system with two-step targeting” (priority 1997, dated 2003)
